This assay relates to L1210 leukemia ip in BDF1 mice, survival T/C. Description: NCI In Vivo Anticancer Drug Screen. Data for tumor model L1210 Leukemia (intraperitoneal) in B6D2F1 (BDF1) mice. The settings on record: endpoint: mean survival time, higher = longer survival. The method, boiled down:
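Tumor was transplanted into mice, which were then dosed with test compound or vehicle alone. Survival was recorded for each group, and the treated figure was expressed relative to the control figure.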

[1] abbreviates: dose: 100.0 mg/kg/injection, schedule: Q01DX009 (ip), vehicle: Klucel (hydroxypropylcellulose) (HPC).
The mark [2] stands for this setting: dose: 100.0 mg/kg/injection, schedule: Q04DX003 (ip), vehicle: Klucel (hydroxypropylcellulose) (HPC).
The mark [3] stands for this setting: dose: 200.0 mg/kg/injection, schedule: Q01DX009 (ip), vehicle: Klucel (hydroxypropylcellulose) (HPC).
The mark [4] stands for this setting: dose: 200.0 mg/kg/injection, schedule: Q04DX003 (ip), vehicle: Klucel (hydroxypropylcellulose) (HPC).
[5] abbreviates: dose: 400.0 mg/kg/injection, schedule: Q01DX009 (ip), vehicle: Klucel (hydroxypropylcellulose) (HPC).
[6] abbreviates: dose: 400.0 mg/kg/injection, schedule: Q04DX003 (ip), vehicle: Klucel (hydroxypropylcellulose) (HPC).
[7] abbreviates: dose: 100.0 mg/kg/injection, schedule: Q01DX009 (ip), vehicle: saline with Tween-80.
The mark [8] stands for this setting: dose: 100.0 mg/kg/injection, schedule: Q04DX003 (ip), vehicle: saline with Tween-80.
[9] abbreviates: dose: 200.0 mg/kg/injection, schedule: Q01DX009 (ip), vehicle: saline with Tween-80.
The mark [10] stands for this setting: dose: 200.0 mg/kg/injection, schedule: Q04DX003 (ip), vehicle: saline with Tween-80.
The mark [11] stands for this setting: dose: 400.0 mg/kg/injection, schedule: Q01DX009 (ip), vehicle: saline with Tween-80.
Where [12] appears, read: dose: 400.0 mg/kg/injection, schedule: Q04DX003 (ip), vehicle: saline with Tween-80.
The mark [13] stands for this setting: dose: 50.0 mg/kg/injection, schedule: Q01DX001 (sc), vehicle: steriod suspending solution.
[14] abbreviates: dose: 100.0 mg/kg/injection, schedule: Q01DX001 (sc), vehicle: steriod suspending solution.
The mark [15] stands for this setting: dose: 25.0 mg/kg/injection, schedule: Q04DX003 (ip), vehicle: saline with Tween-80.
[16] abbreviates: dose: 50.0 mg/kg/injection, schedule: Q01DX009 (ip), vehicle: saline with Tween-80.

Structures are written as SMILES. “And” between values parts separate entries of the source, which are not always exact repeats. Equal values may be shown once. Toxic doses and inconclusive results are not listed.

As for `CC(O)c1ccc(-c2ccccc2)cc1` (centres undefined), the T/C runs as follows: under setting [1], 94 % of control; under setting [2], 95 % of control; under setting [3], 97 % of control; under setting [4], 101 % of control; under setting [5], 111 % of control; under setting [6], 98 % of control.

As for `CCOC(=O)C(CC(OCC)OCC)C(=O)OCC`, the T/C by setting is: under setting [7], 95 % of control; under setting [8], 101 % of control; under setting [9], 96 % of control; under setting [10], 108 % of control; under setting [11], 96 % of control; under setting [12], 100 % of control.

With `ClCCCN1Cc2ccccc2CCc2ccccc2C1`, the T/C under setting [2] is 102 % of control, the T/C under setting [4] is 100 % of control and the T/C under setting [6] was 107 % of control.

With `COc1cccc(NC(=O)N(CCCl)N=O)c1`, the T/C was 122 % of control (dose: 4.5 mg/kg/injection, schedule: Q01DX001 (ip), vehicle: carboxymethylcellulose (CMC)); 159 % of control (dose: 18.0 mg/kg/injection, schedule: Q01DX001 (ip), vehicle: carboxymethylcellulose (CMC)); 151 % of control (dose: 26.0 mg/kg/injection, schedule: Q01DX001 (ip), vehicle: carboxymethylcellulose (CMC)); 188 % of control (dose: 40.0 mg/kg/injection, schedule: Q01DX001 (ip), vehicle: carboxymethylcellulose (CMC)); 87 % of control (dose: 60.0 mg/kg/injection, schedule: Q01DX001 (ip), vehicle: carboxymethylcellulose (CMC)); 87 % of control (dose: 93.0 mg/kg/injection, schedule: Q01DX001 (ip), vehicle: carboxymethylcellulose (CMC)).

As to `C#CC1CC2C3CCC4=CC(=O)CCC4(C)C3CCC2(C)C1N(C)C` (centres undefined), the T/C runs as follows: under setting [13], 98 % of control; under setting [14], 104 % of control.

Take `CC1CCN(C(=O)Nc2cccc(C(F)(F)F)c2)CC1`: the T/C is, setting by setting: under setting [7], 94 % of control; under setting [9], 97 % of control; under setting [11], 91 % of control.

As to `CN(C)C(=S)c1ccc(Cl)cc1`, the T/C is, setting by setting: (dose: 12.5 mg/kg/injection, schedule: Q01DX009 (ip), vehicle: Klucel (hydroxypropylcellulose) (HPC)) 98 % of control; (dose: 25.0 mg/kg/injection, schedule: Q01DX009 (ip), vehicle: Klucel (hydroxypropylcellulose) (HPC)) 98 % of control.

Turning to `CC12CCC(O)CC1CCC1C2CCC2(C)C(c3ccc(=O)oc3)CC3OC312` (centres undefined), the T/C reads like this: under setting [13], 105 % of control; under setting [14], 105 % of control; (dose: 200.0 mg/kg/injection, schedule: Q01DX001 (sc), vehicle: steriod suspending solution) 96 % of control; (dose: 400.0 mg/kg/injection, schedule: Q01DX001 (sc), vehicle: steriod suspending solution) 100 % of control.

Take `CNC(=S)C(=S)NC`: the T/C is 94 % of control (dose: 12.5 mg/kg/injection, schedule: Q04DX003 (ip), vehicle: saline with Tween-80) and 95 % of control under setting [15].

As to `CNc1nc2ccccc2n1C1OC(CO)C(O)C1O` (centres undefined), the T/C (dose: 100.0 mg/kg/injection, schedule: Q01DX001 (ip), vehicle: saline) was 95 % of control; the T/C (dose: 200.0 mg/kg/injection, schedule: Q01DX001 (ip), vehicle: saline) is 98 % of control; the T/C (dose: 400.0 mg/kg/injection, schedule: Q01DX001 (ip), vehicle: saline) is 98 % of control.

For the compound `Cc1cccc(CN2C(=O)c3ccccc3C2=O)c1`, the T/C reads like this: (dose: 100.0 mg/kg/injection, schedule: Q01DX001 (ip), vehicle: Klucel (hydroxypropylcellulose) (HPC)) 100 % of control; (dose: 200.0 mg/kg/injection, schedule: Q01DX001 (ip), vehicle: Klucel (hydroxypropylcellulose) (HPC)) 103 % of control; (dose: 400.0 mg/kg/injection, schedule: Q01DX001 (ip), vehicle: Klucel (hydroxypropylcellulose) (HPC)) 102 % of control.

As to `CC(=O)Nc1ccc(C(C)C)cc1`, the T/C runs as follows: under setting [1], 103 % of control; under setting [3], 95 % of control; under setting [5], 94 % of control.

Regarding `CCOC(=O)NC(C)(C)Cc1ccccc1`, the T/C is, setting by setting: (dose: 25.0 mg/kg/injection, schedule: Q01DX009 (ip), vehicle: saline with Tween-80) 91 % of control; under setting [15], 101 % of control; under setting [16], 98 % of control; (dose: 50.0 mg/kg/injection, schedule: Q04DX003 (ip), vehicle: saline with Tween-80) 106 % of control; under setting [7], 96 % of control; under setting [8], 97 % of control and 103 % of control.

As for `O=c1ccnc(SCc2ccccc2)[nH]1`, the T/C (dose: 100.0 mg/kg/injection, schedule: Q01DX Z (ip), vehicle: methylcellulose (MC)) is 95 % of control and the T/C (dose: 200.0 mg/kg/injection, schedule: Q01DX Z (ip), vehicle: methylcellulose (MC)) was 97 % of control.

For the compound `O=C(Nc1ccccc1F)N(CCO)C1CCCCC1`, the T/C under setting [1] is 101 % of control, the T/C under setting [3] was 106 % of control and the T/C under setting [5] is 101 % of control.

Regarding `O=C(Cc1cccc2ccccc12)N/N=C/c1ccccc1Cl`, the T/C reads like this: under setting [1], 89 % of control and 90 % of control; under setting [3], 92 % of control; under setting [5], 86 % of control and 90 % of control.

Take `CCSC(SCC)C(OC(C)=O)C(OC(C)=O)C(OC(C)=O)C(COC(c1ccccc1)(c1ccccc1)c1ccccc1)OC(C)=O` (centres undefined): the T/C is 101 % of control (dose: 100.0 mg/kg/injection, schedule: Q04DX002 (ip), vehicle: saline with Tween-80) and 89 % of control (dose: 200.0 mg/kg/injection, schedule: Q04DX002 (ip), vehicle: saline with Tween-80).

As for `COc1ccc2c(c1)C1C=[S+]c3ccccc3C1N2` (centres undefined), the T/C by setting is: (dose: 12.5 mg/kg/injection, schedule: Q01DX009 (ip), vehicle: saline) 101 % of control; (dose: 12.5 mg/kg/injection, schedule: Q04DX003 (ip), vehicle: saline) 95 % of control; (dose: 25.0 mg/kg/injection, schedule: Q01DX009 (ip), vehicle: saline) 103 % of control; (dose: 25.0 mg/kg/injection, schedule: Q04DX003 (ip), vehicle: saline) 92 % of control; (dose: 50.0 mg/kg/injection, schedule: Q04DX003 (ip), vehicle: saline) 98 % of control.

With `COC(=O)c1ccc2oc(=O)cc(C)c2c1O`, the T/C was 95 % of control under setting [7]; 93 % of control under setting [8]; 100 % of control under setting [9]; 95 % of control under setting [10]; 94 % of control under setting [11]; 93 % of control under setting [12].

As for `COC1CC(OCc2ccc(Br)cc2)C(COC(c2ccccc2)(c2ccccc2)c2ccccc2)O1` (centres undefined), the T/C reads like this: under setting [2], 92 % of control; under setting [4], 94 % of control; under setting [6], 100 % of control.

For `COc1ccc(OC)c(NC(=S)NC(=O)c2ccccc2F)c1`, the T/C reads like this: under setting [7], 94 % of control; under setting [9], 86 % of control.

Regarding `Cc1cc(C)c(N2C(=O)CC(Sc3ccccc3N)C2=O)c(C)c1` (centres undefined), the T/C is, setting by setting: under setting [8], 105 % of control; under setting [10], 109 % of control; under setting [12], 98 % of control.

As for `C=CC(C)(O)C(C)(C)C` (centres undefined), the T/C under setting [16] was 100 % of control, the T/C under setting [7] is 96 % of control and the T/C under setting [9] is 100 % of control.

Regarding `Cc1cnc(N/N=C/c2ccccc2)nc1-c1ccccc1O`, the T/C runs as follows: (dose: 100.0 mg/kg/injection, schedule: Q04DX002 (ip), vehicle: Klucel (hydroxypropylcellulose) (HPC)) 103 % of control; (dose: 200.0 mg/kg/injection, schedule: Q04DX002 (ip), vehicle: Klucel (hydroxypropylcellulose) (HPC)) 100 % of control; (dose: 400.0 mg/kg/injection, schedule: Q04DX002 (ip), vehicle: Klucel (hydroxypropylcellulose) (HPC)) 92 % of control.

Turning to `Cn1c(=O)c2c(ncn2CN2CCOCC2)n(C)c1=O`, the T/C by setting is: (dose: 75.0 mg/kg/injection, schedule: Q01DX001 (ip), vehicle: saline) 100 % of control; (dose: 150.0 mg/kg/injection, schedule: Q01DX001 (ip), vehicle: saline) 100 % of control.

As for `Cc1ccc(C(=O)C=O)c(C)c1`, the T/C is 96 % of control under setting [1], 105 % of control under setting [3] and 109 % of control under setting [5].

Values taken from PubChem BioAssay AID248 (DTP/NCI, 2004).
